Assay results taken from patent US20170216252A1, “ANTI-BACTERIAL PYRUVATE KINASE MODULATOR COMPOUNDS, COMPOSITIONS, USES AND METHODS” (SIMON FRASER UNIVERSITY, priority 2014, published 2017).
≈ marks a conversion by molar mass, not a printed value. Like-named read-outs stand apart in the source and are kept apart here.

Tests used:
S. aureus ATCC 29213 = test: In vitro susceptibility, broth microdilution MIC; type: cell-based, Staphylococcus aureus; settings: tested at least in duplicate, differing values all given
Summary of the method: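 The MIC against S. aureus 29213 was determined by CLSI 2-fold serial broth microdilution in Mueller Hinton broth. Plates were incubated for 18–24 h at 37 °C and read at OD600 with background subtracted. The MIC was the lowest concentration giving complete growth inhibition versus compound-free wells.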

MRSA PK = target: T1, MRSA PK (Staphylococcus aureus, UniProt Q6GG09); test: MRSA PK activity, continuous LDH-coupled assay; type: biochemical, S. aureus (MRSA strain Sanger 252)
T1 construct: His tag (pET-28a(+) vector) (N); made in house; host or cells: E. coli BL-21 (DE3)
T1 sequence (Q6GG09 whole entry): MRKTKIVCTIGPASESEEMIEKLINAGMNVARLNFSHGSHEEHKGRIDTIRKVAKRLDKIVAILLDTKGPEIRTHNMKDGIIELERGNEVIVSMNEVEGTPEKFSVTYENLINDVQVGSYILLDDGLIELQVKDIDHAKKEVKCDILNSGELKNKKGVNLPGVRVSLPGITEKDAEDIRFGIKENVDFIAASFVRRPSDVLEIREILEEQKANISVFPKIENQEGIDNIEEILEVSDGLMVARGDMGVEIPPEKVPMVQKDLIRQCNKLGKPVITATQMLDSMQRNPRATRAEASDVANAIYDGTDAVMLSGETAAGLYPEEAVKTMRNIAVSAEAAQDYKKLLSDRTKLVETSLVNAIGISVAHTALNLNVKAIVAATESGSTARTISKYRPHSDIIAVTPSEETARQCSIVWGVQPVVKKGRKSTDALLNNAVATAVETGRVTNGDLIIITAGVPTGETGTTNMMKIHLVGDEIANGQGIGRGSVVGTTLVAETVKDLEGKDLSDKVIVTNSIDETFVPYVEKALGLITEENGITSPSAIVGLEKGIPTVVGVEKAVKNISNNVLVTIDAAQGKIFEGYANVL
Summary of the method: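 Purified His-tagged MRSA PK (15 nM, E. coli-expressed) started reactions run up to 5 min at 30 °C. Activity was followed continuously by LDH-coupled NADH oxidation at 340 nm, with DMSO ≤1%. IC50 came from four-parameter variable-slope fits.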

[1] = Staphylococcus aureus, ATCC29213, Table 8, read-out: MIC

Row | SMILES | MIC (S. aureus ATCC 29213; [1]) | IC50 (MRSA PK) | MIC (S. aureus ATCC 29213; Table 8)
1 | O=C(O)c1c(/C=C/c2ccc(Cl)nc2)[nH]c2cc(Br)ccc12 [Compound 152, (E)-6-Bromo-2-(2-(6-chloropyridin-3-yl)vinyl)-1H-indole-3-carboxylic acid] | 64 µg/mL (≈ 169 µM) | > 1 µM | 
2 | O=C(O)c1c(/C=C/c2ccc(Br)cn2)[nH]c2cc(Br)ccc12 [Compound 153, (E)-6-Bromo-2-(2-(5-bromopyridin-2-yl)vinyl)-1H-indole-3-carboxylic acid] | 32 µg/mL (≈ 75.8 µM) | 0.1 to 1 µM | 
3 | Clc1ccc(CCc2nc3ccc(Br)cc3[nH]2)cc1 [Compound 154, 6-bromo-2-(4-chlorophenethyl)-1H-benzo[d]imidazole] | 16 µg/mL (≈ 47.7 µM) | > 1 µM | 32 µg/mL (≈ 95.3 µM)
4 | COC(=O)c1cc(Br)cc2[nH]c(/C=C/c3ccc(Cl)cc3)cc12 [Compound 157, (E)-Methyl 6-bromo-2-(4-chlorostyryl)-1H-indole-4-carboxylate] | > 64 µg/mL | > 1 µM | 
5 | O=C(O)c1cc(Br)cc2[nH]c(/C=C/c3ccc(Cl)cc3)cc12 [Compound 158, (E)-6-Bromo-2-(4-chlorostyryl)-1H-indole-4-carboxylic acid] | 32 µg/mL (≈ 85 µM) | > 1 µM | 
6 | O=C(O)c1cc(Br)cc2[nH]c(CCc3ccc(Cl)cc3)cc12 [Compound 159, 6-bromo-2-(4-chlorophenethyl)-1H-indole-4-carboxylic acid] | 64 µg/mL (≈ 169 µM) | 0.1 to 1 µM | 
7 | Cc1c(/C=C/c2ccc(Cl)cc2)[nH]c2cc(Br)ccc12 [Compound 160, (E)-6-bromo-2-(4-chlorostyryl)-3-methyl-1H-indole] | > 64 µg/mL | < 0.05 µM | 
8 | Fc1cc2cc(/C=C/c3ccc(Cl)cc3)[nH]c2cc1Br [Compound 161, (E)-6-Bromo-2-(4-chlorostyryl)-5-fluoro-1H-indole] | > 64 µg/mL | < 0.05 µM | 
9 | O=C(O)c1c(-c2cc3cc(Cl)ccc3[nH]2)[nH]c2cc(Br)ccc12 [Compound 162, 6-bromo-5′-chloro-1H,1′H-[2,2′-biindole]-3-carboxylic acid] | 4 µg/mL (≈ 10.3 µM) | < 0.05 µM | 
10 | COC(=O)c1cc(Br)cc2[nH]c(-c3cc4c(C(=O)OC)cc(Br)cc4[nH]3)cc12 [Compound 163, Dimethyl 6,6′-dibromo-1H,1′H-[2,2′-biindole]-4,4′-dicarboxylate] | > 64 µg/mL | 0.05 to 0.1 µM | 
11 | Clc1ccc2[nH]c(-c3cc4ccc(Br)cc4[nH]3)nc2c1 [Compound 164, 2-(6-bromo-1H-indol-2-yl)-5-chloro-1H-benzo[d]imidazole] | 1 µg/mL (≈ 2.89 µM) | < 0.05 µM | 
12 | COC(=O)c1c(NCc2ccc(Cl)cc2)[nH]c2cc(Br)ccc12 [Compound 165, Methyl 6-bromo-2-(4-chlorobenzylamino)-1H-indole-3-carboxylate] | 4 µg/mL (≈ 10.2 µM) | > 1 µM | 
13 | COC(=O)c1c(NCc2cn3ccccc3n2)[nH]c2cc(Br)ccc12 [Compound 166, Methyl 6-bromo-2-(imidazo[1,2-a]pyridin-2-ylmethylamino)-1H-indole-3-carboxylate] | > 64 µg/mL | > 1 µM | 
14 | O=C(c1c(C#Cc2ncccn2)[nH]c2cc(Br)ccc12)C(F)(F)F [Compound 169, 1-(6-Bromo-2-(pyrimidin-2-ylethynyl)-1H-indol-3-yl)-2,2,2-trifluoroethanone] | > 64 µg/mL | > 100 µM | 
15 | O=C(c1c(CCc2cc(Cl)cc(Cl)c2)[nH]c2cc(Br)ccc12)C(F)(F)F [Compound 171, 1-(6-Bromo-2-(3,5-dichlorophenethyl)-1H-indol-3-yl)-2,2,2-trifluoroethanone] | 1 µg/mL (≈ 2.15 µM) | > 1 µM | 
16 | O=C(c1c(CCc2ccc(Cl)nc2)[nH]c2cc(Br)ccc12)C(F)(F)F [Compound 173, 1-(6-Bromo-2-(2-(6-chloropyridin-3-yl)ethyl)-1H-indol-3-yl)-2,2,2-trifluoroethanone] | > 64 µg/mL | > 1 µM | 
17 | O=C(c1c(/C=C/c2ccc(Br)cn2)[nH]c2cc(Br)ccc12)C(F)(F)F [Compound 174, (E)-1-(6-Bromo-2-(2-(5-bromopyridin-2-yl)vinyl)-1H-indol-3-yl)-2,2,2-trifluoroethanone] | 32 µg/mL (≈ 67.5 µM) | > 1 µM | 
